Data from patent publication US20120302573A1, “METHODS OF INHIBITING PRO MATRIX METALLOPROTEINASE ACTIVATION” (priority 2011, published 2012).
“And” between values parts separate entries of the source, which are not always exact repeats. Equal values may be shown once.

Legend:
[1] = system: rats with SCW-induced arthritis; assay: Efficacy in rats with SCW-induced arthritis (ankle thickness, clinical score); assay type: in vivo, rat
Protocol: To induce arthritis, Female Lewis (LEW/N) rats, 5-6 weeks of age (80-100 g) were injected (i.p.) with SCW PG-PS as described above. Eighteen days later, arthritis was well established. Calipers were used to measure the width (anterior to posterior surface) of the left and right hind ankles of each rat. Each ankle was measured 3 times and averaged, and treatment groups were randomized based on ankle thickness (Table 7). Commencing on day 18, randomized groups of arthritic rats (n=5 rats/group) received vehicle or 5, 20, or 50 mg/kg Compound α BID by oral gavage. Vehicle consisted of an aqueous mixture containing 2% (v:v) N-methylpyrrolidone, 5% (v:v) glycerine, and 20% (w:v) captisol. Treatment continued daily through the morning of day 26.
By day 18 mean ankle thickness was increased an average of >4.4 mm compared to disease free rats. Rats treated with vehicle alone continued to gradually develop a more severe arthritis based on ankle thickness measurements over the eight-day treatment period (Table 7). […] By day 26, the disease associated increase in ankle thickness had been reduced 27, 37, and 46 percent by 5, 20, and 50 mg/kg Compound α, respectively.
Hind paw inflammation clinical scores were assigned based on swelling and erythema.

MMP9 = biological target: T1, MMP9 (Rattus norvegicus, UniProt P50282); assay: Western blot of MMP9 forms in ankles of rats with SCW-induced arthritis; assay type: in vivo; conditions: day 26, mAb-L51/82
T1 construct: Pro and active MMP9 were abundantly present in ankles of SCW-induced vehicle-treated rats; from tissue; host or cells: tibia-tarsus joints (ankles) of female Lewis rats
Protocol: Hind-limbs were skinned, severed just above the tibia-tarsus joint and below the metatarsals, and the tibia-tarsus joints (ankles) were weighed, snap frozen and pulverized on dry ice using a hammer and anvil. The pulverized tissue was suspended in 3 volumes (w:v) of ice-cold homogenization buffer containing 50 mM Tris pH 7.5, 150 mM NaCl, 5 mM EDTA, 1% Triton×100, 0.05% Brij 30, 10% dimethylsulfoxide and Complete EDTA-free Protease Inhibitor Cocktail (Roche Diagnostics). The suspended tissue was homogenized sequentially with a Kinematica AG Polytron and a Dounce homogenizer. Homogenates were centrifuged at 16,000×g for 10 min at 4° C. and the soluble fractions were saved. Dimethylsulfoxide was removed from a portion of each soluble fraction using PD MiniTrap™ G-25 desalting columns (GE Healthcare). Homogenates (0.25 mL), free of DMSO, were diluted with an equal volume of binding buffer (i.e., homogenization buffer without dimethylsufoxide) and adjusted to contain 50 μL of a 50% slurry of gelatin-conjugated sepharose. Following 2 hours of rotation at 4° C. the beads were washed twice in binding buffer and eluted in 100 μL 2×-reducing Laemmli buffer with heating to 95° C. for 5 minutes. […]

[2] = biological target: T2, MMP9 mediated gelatinase activity (Rattus norvegicus, UniProt P50282); assay: In situ zymography of gelatinase activity in livers of SCW-induced rats dosed with compound; assay type: in vivo; conditions: for Liver gelatinase Intensity, Mean / Liver gelatinase Intensity, individual rats: Day 25-28
T2 construct: from tissue; host or cells: liver cryosections of female Lewis rats
Source text: In situ zymography provides an alternative approach to assess active MMP9 in tissues (J Histochem Cytochem; 2004; 52:711-722). Tissue sections are overlain with fluorescein-conjugated gelatin wherein the conjugation is sufficiently dense to cause the fluorescein to be dye-quenched (DQ). Proteolytic degradation of the DQ-gelatin releases the fluorescein from the quenching effect giving rise to bright green fluorescence at the site of degradation. Because in situ zymography requires the use of frozen sections, calcified tissues are problematic. However, an additional feature of the SCW arthritis model is the development of hepatic granulomatous disease (J Immunol; 1986; 137:2199-2209), and MMP9 reportedly plays a role in macrophage recruitment in the granulomas response to mycobacteria (Infect Immun; 2006; 74:6135-6144). Consequently, granulomatous livers from SCW-treated rats were assessed for active MMP9 by in situ zymography.
As described above, Female Lewis (LEW/N) rats, 5-6 weeks of age (80-100 g) were injected (i.p.) with saline or SCW PG-PS. On day 28, when the granulomatous response was well established, animals were sacrificed and livers were frozen in OCT cryo-sectioning medium and 10 μm sections were cut on a Cryome HM 500 M cryotome and mounted on glass microscope slides. Sections were air dried briefly. MMP9 was confirmed as the source of the gelatinase activity in the liver by treating liver sections with monoclonal antibodies directed against the active site of the two major gelatinases MMP9 and MMP2. Liver sections overlain with 50 μL of 100 μg/mL neutralizing mouse monoclonal antibodies directed against MMP9 (Calbiochem, clone 6-6B), or MMP2 (Millipore, clone CA-4001), or with PBS for 1 hr at room temperature. Tissues were rinsed once with PBS, blotted, and briefly air dried and then overlain with DQ-gelatin (Invitrogen) dissolved to 1 mg/mL in deionized water and then diluted 1:10 in 1% wt/vol low gelling point agarose type VII (Sigma) in PBS. The sections were covered with coverslips, incubated in the dark at room temperature for 20 min, and imaged on an Olympus IX80 inverted microscope fitted with fluorescence optics, using SlideBook™ imaging software (Intelligent Imaging Innovations, Inc., Philadelphia, Pa.; version 5.0). Fluorescence intensity was determined (Table 9). When compared to a saline-treated rat, gelatinase activity was abundantly expressed in granulomatous liver sections obtained from a rat with SCW arthritis.
Next, liver in situ zymography was used to assess the relative presence of active MMP9 in rats dosed with vehicle vs. Compound α. Female Lewis (LEW/N) rats, 5-6 weeks of age (80-100 g) were injected (i.p.) with saline or SCW PG-PS. Commencing on day 25, randomized groups of rats (n=3 rats/group) received vehicle or 20 or 50 mg/kg Compound α BID by oral gavage. Vehicle consisted of an aqueous mixture containing 2% (v:v) N-methylpyrrolidone, 5% (v:v) glycerine, and 20% (w:v) captisol. Treatment continued daily through the morning of day 28.
Four hrs after the AM dose on day 28, rats were sacrificed and livers assessed for active MMP9 by in situ zymography (Table 10). Gelatinase activity was increased markedly in SCW-induced rats, but activity was reduced by approximately 80% in animals treated with 50 mg/kg Compound α.

T2 sequence (P50282 108-708): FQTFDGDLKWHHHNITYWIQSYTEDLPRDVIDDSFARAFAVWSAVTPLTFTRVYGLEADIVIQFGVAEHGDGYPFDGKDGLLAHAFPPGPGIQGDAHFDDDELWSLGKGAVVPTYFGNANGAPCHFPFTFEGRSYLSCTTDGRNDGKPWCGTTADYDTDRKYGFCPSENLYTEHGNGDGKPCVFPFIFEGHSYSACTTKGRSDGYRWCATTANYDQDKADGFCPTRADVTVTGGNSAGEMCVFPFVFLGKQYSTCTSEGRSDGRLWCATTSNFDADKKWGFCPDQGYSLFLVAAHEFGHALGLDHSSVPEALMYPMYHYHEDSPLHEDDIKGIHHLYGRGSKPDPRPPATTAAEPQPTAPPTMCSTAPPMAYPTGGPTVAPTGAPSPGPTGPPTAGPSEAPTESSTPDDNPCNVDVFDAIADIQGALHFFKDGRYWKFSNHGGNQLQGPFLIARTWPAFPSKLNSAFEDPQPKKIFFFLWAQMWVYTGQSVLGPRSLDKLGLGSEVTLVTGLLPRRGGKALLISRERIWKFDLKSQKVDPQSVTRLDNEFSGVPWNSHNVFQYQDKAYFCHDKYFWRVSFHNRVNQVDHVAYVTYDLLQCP
T1 sequence (P50282 108-708): as above

abundance of proMMP9 in ankles (MMP9): did not reduce
Liver gelatinase Intensity, Mean ([2]; 20 mg/kg BID oral): 55.2 RLU × 10^6
Liver gelatinase Intensity, Mean ([2]; 50 mg/kg BID oral): 11.1 RLU × 10^6
reduction of liver gelatinase activity ([2]; 50 mg/kg BID oral, day 28): approximately 80%
SMILES: Cc1nc(C)c(-c2csc(Nc3cc(S(N)(=O)=O)ccc3OC(C)C)n2)s1 [Compound α, 3-(2′,4′-Dimethyl-[4,5′]bithiazolyl-2-ylamino)-4-isopropoxy-benzenesulfonamide.HBr]
Day 26 % Inh of disease associated increase in ankle thickness ([1]; 5 mg/kg BID oral): 27%
Day 26 % Inh of disease associated increase in ankle thickness ([1]; 20 mg/kg BID oral): 37%
Day 26 % Inh of disease associated increase in ankle thickness ([1]; 50 mg/kg BID oral): 46%
Liver gelatinase Intensity, individual rats ([2]; 20 mg/kg BID oral): 43.0 RLU × 10^6 and 69.0 RLU × 10^6 and 53.7 RLU × 10^6
Liver gelatinase Intensity, individual rats ([2]; 50 mg/kg BID oral): 3.2 RLU × 10^6 and 25.6 RLU × 10^6 and 4.5 RLU × 10^6
